Source: PMC3538727, “Design, Synthesis and Biological Evaluation of Novel Piperazine Derivatives as CCR5 Antagonists” (PLoS ONE, 2013)
“Also recorded” adds a separate entry of the source. Like-named read-outs stand apart in the source and are kept apart here.

Key:
[1] = target: T1, CCR5 (Homo sapiens, UniProt P51681); assay: Cell-cell fusion assay (CCF assay, CCR5-mediated fusion); format: cell-based; conditions: for inhibition at 10 µM: CCR5, read-out: inhibition rate (10 µM), CCR5 fusion activity; for inhibition at 10 µM / IC50 / inhibition rate (10 µM), CCR5 fusion activity: mean of at least two experiments, DMSO as negative control; for fold loss of CCR5 fusion potency in comparison to 9e: relative to 9e
T1 construct: expressed in transfected cells
T1 sequence (P51681 whole entry, the tested form may be a part): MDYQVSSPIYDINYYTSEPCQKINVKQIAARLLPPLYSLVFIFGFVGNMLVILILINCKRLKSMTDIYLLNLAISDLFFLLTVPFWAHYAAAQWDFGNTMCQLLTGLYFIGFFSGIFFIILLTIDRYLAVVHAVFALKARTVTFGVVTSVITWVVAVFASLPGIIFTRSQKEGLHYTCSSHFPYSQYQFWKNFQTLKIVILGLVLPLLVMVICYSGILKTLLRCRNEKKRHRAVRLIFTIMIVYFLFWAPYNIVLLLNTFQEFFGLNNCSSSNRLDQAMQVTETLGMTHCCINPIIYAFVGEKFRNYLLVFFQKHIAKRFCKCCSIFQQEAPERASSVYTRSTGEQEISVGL
Source text: A total of 21 novel piperazine derivatives 9a–h, 13a–d, 17, and 23a–h were screened for their inhibitory activity against cell-cell fusion between target cells expressing CD4/CCR5 and effector cells expressing the envelope protein of HIV-1, gp-120 (fusion assay).
Effector cell line: This cell line express HIV envelope protein gp160 and chimera protein Rn-Dn. Rn-Dn is consist of the N terminal of renilla luciferase and the N terminal of DnaE intein from Anacystis nidulans R2 PCC7942.
Target cell line: This cell line express chemokine receptor 5(CCR5), CD4 protein and chimera protein Dc-Rc. Dc-Rc is consist of the C teminal of renilla luceferase and the C teminal of NnaE intein from Anacystis nidulans R2 PCC7942.
The cell-cell fusion assay was performed as described previously.The effector cells were plated in 24 well white culture plates at 7.5×10^4 cell per well in DMEM supplemented with 10% FBS, 800 µg/mL G418. The target cells in the growth medium were then added to the plates at 7.5×10^4 cells/50 µL/well and incubated for 5 hours. At the end of coculture, 70 µL of renilla luceferase assay lysis was added into each well, and the cultures were gently shaken for 15 min. At the same time, add 20 µl of Renilla Luciferase Assay Reagent to the luminometer tube. Add 20 µl of cell lysate to the tube. Mix quickly by flicking the tube for 1 second. Place the tube in FB12 luminometer and initiate measurement. Luminescence was integrated over 1 second with a 2-second delay. When small molecule compounds needed to be added to the CCF assay system, the compounds were diluted manually in DMSO. Then, 10 µL of the diluted compounds was added to the effector cells just before the addition of target cells, thus making the final concentration of DMSO in the coculture 0.5%.

[2] = tested on: recombinant HIV-1 virus pseudotyped with the envelope proteins of the CCR5-tropic virus; assay: microbe, parasite or virus in culture; format: cell-based; conditions: for inhibition at 10 µM: Human immunodeficiency virus 1, SUP-T1, read-out: inhibition rate (10 µM), antiviral activity
Experimental: Fluorophenyl analogs 9e–g, phenyl, chlorophenyl, and trifluorophenyl analog 23a–c, and cyclohexyl analog 23 h were evaluated for their anti-HIV activity using a recombinant HIV-1 virus pseudotyped with the envelope proteins of the CCR5-tropic virus (HIV-1 single cycle antiviral assay). For overall estimation of the therapeutic potential of these novel CCR5 antagonists, maraviroc was used as a positive control.
HIV-1 proviral indicator construct pNL-Luc-E- contains a full-length HIV-1 genome, in which env was replaced by firefly Luciferase coding sequence. pENV-Ad8 expresses R5-tropic envelope (AD8).
Single-cycle HIV-1 replication assays were performed as described previously. In brief, 4×10^5 293T cells were co-transfected with 0.4 µg of pNL-Luc-E- and 0.4 µg of pENV-R5. After 48h, the supernatant containing pseudovirion was harvested by filtration through a 0.45 µm filter and the amount of viral capsid protein was measured by p24 antigen capture ELISA (Biomerieux). The resultant supernatant (10 µL) was used to infect SupT1 cells (1×10^5) in 96-well plates in the presence of testing compound at the concentration indicated. The SupT1 cells were lysed 48h post-infection and firefly luciferase activities were determined using a firefly Luciferase Assay System (Promega). Values were normalized to the control group treated with DMSO, and represented relative infectivity of each sample testing.

[3] = mean of two experiments, DMSO as negative control

Molecule | inhibition at 10 µM [1] [%] | melting point [°C] | IC50 [1] [µM] | also measured
Cc1ccc(N2CCN(CCC(NC(=O)c3ccccc3)c3ccccc3)CC2)cc1 (centres unmarked) [Compound 9a] | 47 | 165 to 167 | – | –
Cc1ccc(N2CCN(CCC(NC(=O)c3ccc(F)cc3)c3ccccc3)CC2)cc1 (centres unmarked) [Compound 9b] | 35 | 171 to 173 | – | –
O=C(NC(CCN1CCN(c2ccc(F)cc2)CC1)c1ccccc1)c1ccc(F)cc1 (centres unmarked) [Compound 9c] | 41 | 157 to 159 | – | –
O=C(NC(CCN1CCN(c2ccc(F)cc2)CC1)c1ccccc1)c1ccccc1 (centres unmarked) [Compound 9d] | 26 | 152 to 154 | – | –
N#Cc1ccc(N2CCN(CCC(NC(=O)c3ccc(F)cc3)c3ccccc3)CC2)cc1 (centres unmarked) [Compound 9e] | – | 160 to 162 | 0.64 | inhibition rate (10 µM), antiviral activity [2, 3]: weak anti-HIV activity; inhibition at 10 µM [2]: 23.8%
N#Cc1ccc(N2CCN(CCC(NC(=O)c3ccc(F)cc3)c3ccc(Cl)cc3)CC2)cc1 (centres unmarked) [Compound 9f] | – | 121 to 123 | 3.7 | fold loss of CCR5 fusion potency in comparison to 9e [1]: 5 fold; inhibition rate (10 µM), antiviral activity [2, 3]: inactive
N#Cc1ccc(N2CCN(CCC(NC(=O)c3ccc(F)cc3)c3ccc(Cl)c(Cl)c3)CC2)cc1 (centres unmarked) [Compound 9g] | – | 85 to 88 | 10 | fold loss of CCR5 fusion potency in comparison to 9e [1]: more than 15 fold; inhibition at 10 µM [2]: 2.9%
NC(=O)c1ccc(N2CCN(CCC(NC(=O)c3ccc(F)cc3)c3ccccc3)CC2)cc1 (centres unmarked) [Compound 9h] | 20 | – | – | –
N#CCc1ccc(N2CCN(CCC(NC(=O)c3ccc(F)cc3)c3ccccc3)CC2)cc1 (centres unmarked) [Compound 13a] | – | 115 to 119 | – | inhibition rate (10 µM), CCR5 fusion activity [1]: inactive
N#Cc1ccc(C(=O)N2CCN(CCC(NC(=O)c3ccc(F)cc3)c3ccccc3)CC2)cc1 (centres unmarked) [Compound 13b] | 22 | 80 to 84 | – | –
N#Cc1ccc(CN2CCN(CCC(NC(=O)c3ccc(F)cc3)c3ccccc3)CC2)cc1 (centres unmarked) [Compound 13c] | – | 83 to 87 | – | inhibition rate (10 µM), CCR5 fusion activity [1]: inactive
N#Cc1ccc(N2CCN(C(=O)CC(NC(=O)c3ccc(F)cc3)c3ccccc3)CC2)cc1 (centres unmarked) [Compound 13d, N-(3-(4-(4-cyanophenyl)piperazin-1-yl)-3-oxo-1-phenylpropyl)-4-fluoro-benzamide] | 25 | 98 to 102 | – | –
N#Cc1ccc(N2CCN(CCCN(C(=O)c3ccc(F)cc3)c3ccccc3)CC2)cc1 [Compound 17, N-(3-(4-(4-cyanophenyl)piperazin-1-yl)propyl)-4-fluoro-N-phenylbenzamide] | – | 82 to 84 | – | inhibition rate (10 µM), CCR5 fusion activity [1]: inactive
N#Cc1ccc(N2CCN(CCC(NC(=O)c3ccccc3)c3ccccc3)CC2)cc1 (centres unmarked) [Compound 23a] | – | 152 to 155 | 2.44 | fold loss of CCR5 fusion potency in comparison to 9e [1]: 4 fold; inhibition at 10 µM [2]: 28.9%
N#Cc1ccc(N2CCN(CCC(NC(=O)c3ccc(Cl)cc3)c3ccccc3)CC2)cc1 (centres unmarked) [Compound 23b] | – | 143 to 145 | 2.87 | fold loss of CCR5 fusion potency in comparison to 9e [1]: 5 fold; inhibition at 10 µM [2]: 29.9%
N#Cc1ccc(N2CCN(CCC(NC(=O)c3ccc(C(F)(F)F)cc3)c3ccccc3)CC2)cc1 (centres unmarked) [Compound 23c] | – | 158 to 160 | 10 | fold loss of CCR5 fusion potency in comparison to 9e [1]: 15 fold; inhibition at 10 µM [2]: 24.6%
CC(C)c1ccc(C(=O)NC(CCN2CCN(c3ccc(C#N)cc3)CC2)c2ccccc2)cc1 (centres unmarked) [Compound 23d] | 20 | 155 to 158 | – | –
CC(=O)N1CCC(C(=O)NC(CCN2CCN(c3ccc(C#N)cc3)CC2)c2ccccc2)CC1 (centres unmarked) [Compound 23e] | – | 100 to 105 | – | inhibition rate (10 µM), CCR5 fusion activity [1]: complete loss in fusion activity; also recorded: inactive
N#Cc1ccc(N2CCN(CCC(NC(=O)C3CCN(C(=O)c4ccccc4)CC3)c3ccccc3)CC2)cc1 (centres unmarked) [Compound 23f] | 15 | 121 to 124 | – | –
N#Cc1ccc(N2CCN(CCC(NC(=O)c3ccco3)c3ccccc3)CC2)cc1 (centres unmarked) [Compound 23g] | – | 132 to 136 | – | inhibition rate (10 µM), CCR5 fusion activity [1]: inactive
N#Cc1ccc(N2CCN(CCC(NC(=O)C3CCCCC3)c3ccccc3)CC2)cc1 (centres unmarked) [Compound 23h] | – | – | 6.29 | IC50 ([2]; Human immunodeficiency virus 1, SUP-T1, read-out: IC50 (µM), antiviral activity): 0.44 µM; inhibition at 10 µM [2]: 66.5%
maraviroc [reference compound] | – | – | – | inhibition rate (10 µM), antiviral activity [2, 3]: 96.8%; IC50 ([2]; read-out: IC50 (µM), antiviral activity, mean of two experiments, DMSO as negative control): 0.0011 µM
